{
  "source": "patent US8318186B2",
  "about": "“Use of at least a fatty ester for preparing a composition designed to inhibit 5-α-reductase activity, in pharmacology, in particular dermatology, in cosmetics and as food additive” (Laboratoires Expanscience, priority 2000, dated 2012)",
  "key": {"5α-reductase [1]": {"tested_on": "5α-reductase", "test": "5α-reductase activity, conversion of testosterone to 5α-dihydrotestosterone in normal human dermal fibroblast cultures (Example 3)", "assay_type": "cell-based", "conditions": "for 5α-reductase activity as percentage of the DMSO group / 5α-DHT formed per culture well, mean / 5α-DHT formed per culture well, single well: 22 hours of incubation; for 5α-DHT formed per culture well, mean / 5α-DHT formed per culture well, single well: DMSO 1% (v/v); for 5α-DHT formed per culture well, mean: mean of triplicate; for 5α-DHT formed per culture well, single well: single replicate; for inhibition of the 5α-reductase activity: text of Example 3", "experimental": "It is proposed to evaluate the effect of the products such as methyl oleate (Sigma commercial product, 99% purity), of the methyl esters of avocado and of a Serenoa Repens extract chosen as reference on the 5α-reductase activity. An in vitro model of normal human dermal fibroblast cultures was selected.\n(§1) The fibroblast culture medium (FCM) consisted of MEM/M199 (3:1, v/v) supplemented with penicillin (50 IU/ml), streptomycin (50 μg/ml), sodium bicarbonate (0.2%, w/v) and FCS (10%, v/v).\n(§2) The assay system consisted of normal human dermal fibroblasts cultured as a monolayer. The fibroblasts were isolated from a residue from abdominal plastic surgery performed on a person (subject BIOPREDIC No. I0013). The cells were used at the fifth passage; they were cultured until the monolayers were confluent in FCM medium at 37° C. in a humid atmosphere containing 5% CO2.\n(§3) The fibroblast incubation medium (FIM) consisted of FCM supplemented with tritiated testosterone (1.6×10^−7 M, that is 6.32 μCi/ml) and nonradiolabeled testosterone (3.84×10^−6 M)\nThe test products and finasteride were taken up in DMSO before being diluted in the incubation medium. The final concentration of DMSO was kept constant and equal to 1% (v/v) in each dilution of test products and reference products.\n(§4) The fibroblast cultures were preincubated in the presence of the test products or of the reference product for 2 hours before adding the substrate, testosterone. For this step, the test products and the reference product were prepared in the FCM medium.\nAfter preincubation, the fibroblast cultures were incubated in the presence of the test products or of the reference product prepared in the FIM medium for 22 hours at 37° C. in a humid atmosphere containing 5% CO2. Control cultures were incubated in the FIM medium in the absence of test products and of reference product. “DMSO control” cultures were incubated in the FIM medium containing 1% (v/v) of DMSO.\n(§5) Each experimental condition was tested in triplicate.\n(§6) After the incubation period, the cells were subjected to the action of ultrasound in the FIM medium. The cellular lysates thus obtained were extracted with dichloromethane. After evaporation, the dry residues were taken up in methanol and were deposited on 60F254 silica plates (MERCK, reference 5554).\nNonradiolabeled standards, testosterone, 5α-dihydro-testosterone and androstenedione, were deposited on each of the plates.\n(§7) The migration solvent was a mixture of dichloromethane and ether (7:3, v/v) At the end of the migration, the silica plates were read using a BERTHOLD radioactivity scanner.\nThe nonradiolabeled standards were visualized by spraying 5% sulfuric acid (v/v) over the chromatography plates which were then heated at 100° C. for 10 minutes.\nComparison of the Rf values (relative retardation factor) determined for the standards with those obtained for the various radioactive metabolites allowed the identification of the latter.\n(§8) The metabolizing of testosterone to 5α-dihydro-testosterone under the various experimental conditions was calculated: the results (areas of the 5α-dihydrotestosterone peaks counted by the BERTHOLD scanner) were expressed in pmol of 5α-dihydro-testosterone formed per culture well. They were also expressed as a percentage of the 5α-reductase activity present in the “DMSO control” group.\n(§9) The groups of data (control group and treated groups) were treated by a one-way analysis of variance (ANOVA 1, p<0.05), followed by a DUNNETT's test (p<0.05). The effect of the test products and of the reference product was compared with the “DMSO control” group. The effects of the test products were compared to each other by a two-way analysis of variance (ANOVA 2, p<0.05, factor 1=concentration and factor 2=treatment)."}, "5α-reductase [2]": {"tested_on": "5α-reductase", "test": "Fatty acid esters on 5α-reductase activity, conversion of testosterone to 5α-dihydrotestosterone in normal human dermal fibroblast cultures (Example 4)", "assay_type": "cell-based", "set-up": "key to group by 5α-reductase inhibitory activity: group A with the highest inhibitory activity; group B with an intermediate inhibitory activity", "conditions": "for inhibition of the 5α-reductase activity: Example 4, p<0.05; for 5α-DHT formed per culture well, mean / 5α-DHT formed per culture well, single well: after 24 of incubation, DMSO 0.1% (v/v); for 5α-DHT formed per culture well, single well: single replicate", "experimental": "as §1, §2, §3\nThe test products and finasteride were taken up in DMSO before being diluted in the incubation medium. […]\nas §4\nAfter preincubation, the fibroblast cultures were incubated in the presence of the test products or of the reference product prepared in the FIM medium for 22 hours at 37° C. in a humid atmosphere containing 5% CO2. Control cultures were incubated in the FIM medium in the absence of test products and of reference product. […]\nas §5, §6, §7, §8, §9\nThe same materials and methods are used as in example 3 above.\nIt was proposed to evaluate the effect of fatty acid esters on the 5α-reductase activity. An in vitro model of normal human dermal fibroblast cultures was selected. The products tested were chosen from the group of fatty acid esters varying in the length and the functionality of the fatty chain, and the nature of the alkoxy group. These esters are the following: methyl oleate, methyl linoleate, methyl stearate, methyl laurate, methyl undecylenate, butyl oleate, oleyl oleate and methyl ricinoleate."}},
  "note": "Where “and” joins values, the source holds several entries; their conditions need not be identical. Equal values may be shown once. Marks after values point to notes of the source that are not given here.",
  "data": [
    {"smiles": "CCCCCCCC/C=C\\CCCCCCCC(=O)OC", "note": "[Methyl oleate, methyl oleate]", "values": [
      {"measurement": "5α-reductase activity as percentage of the DMSO group", "setting": "5α-reductase [1]; 1 μg/ml", "result": "76 percentage of the DMSO group"},
      {"measurement": "5α-DHT formed per culture well, mean", "setting": "5α-reductase [1]; 1 μg/ml", "result": "6.48* +/− pmol of 5α-DHT formed/culture well"},
      {"measurement": "5α-DHT formed per culture well, single well", "setting": "5α-reductase [1]; 1 μg/ml", "result": "7.12 pmol of 5α-DHT formed/culture well and 6.24 pmol of 5α-DHT formed/culture well and 6.08 pmol of 5α-DHT formed/culture well"},
      {"measurement": "inhibition of the 5α-reductase activity", "setting": "5α-reductase [1]; 1 μg/ml", "result": 24, "unit": "%"},
      {"measurement": "5α-reductase activity as percentage of the DMSO group", "setting": "5α-reductase [1]; 10 μg/ml", "result": "62 percentage of the DMSO group"},
      {"measurement": "5α-DHT formed per culture well, mean", "setting": "5α-reductase [1]; 10 μg/ml", "result": "5.32* +/− pmol of 5α-DHT formed/culture well"},
      {"measurement": "5α-DHT formed per culture well, single well", "setting": "5α-reductase [1]; 10 μg/ml", "result": "3.00 pmol of 5α-DHT formed/culture well and 7.04 pmol of 5α-DHT formed/culture well and 5.92 pmol of 5α-DHT formed/culture well"},
      {"measurement": "inhibition of the 5α-reductase activity", "setting": "5α-reductase [1]; 10 μg/ml", "result": 38, "unit": "%"},
      {"measurement": "5α-reductase activity as percentage of the DMSO group", "setting": "5α-reductase [1]; 100 μg/ml", "result": "59 percentage of the DMSO group"},
      {"measurement": "5α-DHT formed per culture well, mean", "setting": "5α-reductase [1]; 100 μg/ml", "result": "5.05* +/− pmol of 5α-DHT formed/culture well"},
      {"measurement": "5α-DHT formed per culture well, single well", "setting": "5α-reductase [1]; 100 μg/ml", "result": "5.44 pmol of 5α-DHT formed/culture well and 5.12 pmol of 5α-DHT formed/culture well and 4.60 pmol of 5α-DHT formed/culture well"},
      {"measurement": "inhibition of the 5α-reductase activity", "setting": "5α-reductase [1]; 100 μg/ml", "result": 41, "unit": "%"},
      {"measurement": "5α-reductase inhibitory activity, in words", "setting": "5α-reductase [1]; tested at 10 and 100 μg/ml, compared with Serenoa repens extract", "result": "significantly higher than that of the Serenoa repens extract"},
      {"measurement": "5α-reductase activity as percentage of the “DMSO 0.1% (v/v)” group", "setting": "5α-reductase [2]; 1 μg/ml", "result": "71 percentage of the “DMSO 0.1% (v/v)” group"},
      {"measurement": "inhibition of the 5α-reductase activity", "setting": "5α-reductase [2]; 1 μg/ml", "result": 29, "unit": "%"},
      {"measurement": "5α-DHT formed per culture well, mean", "setting": "5α-reductase [2]; 1 μg/ml", "result": "8.12* +/− pmol of 5α-DHT formed/culture well"},
      {"measurement": "5α-DHT formed per culture well, single well", "setting": "5α-reductase [2]; 1 μg/ml", "result": "8.24 pmol of 5α-DHT formed/culture well and 8.28 pmol of 5α-DHT formed/culture well and 7.84 pmol of 5α-DHT formed/culture well"},
      {"measurement": "5α-reductase activity as percentage of the “DMSO 0.1% (v/v)” group", "setting": "5α-reductase [2]; 10 μg/ml", "result": "58 percentage of the “DMSO 0.1% (v/v)” group"},
      {"measurement": "inhibition of the 5α-reductase activity", "setting": "5α-reductase [2]; 10 μg/ml", "result": 42, "unit": "%"},
      {"measurement": "5α-DHT formed per culture well, mean", "setting": "5α-reductase [2]; 10 μg/ml", "result": "6.61* +/− pmol of 5α-DHT formed/culture well"},
      {"measurement": "5α-DHT formed per culture well, single well", "setting": "5α-reductase [2]; 10 μg/ml", "result": "6.28 pmol of 5α-DHT formed/culture well and 6.44 pmol of 5α-DHT formed/culture well and 7.12 pmol of 5α-DHT formed/culture well"},
      {"measurement": "5α-reductase activity as percentage of the “DMSO 0.1% (v/v)” group", "setting": "5α-reductase [2]; 100 μg/ml", "result": "64 percentage of the “DMSO 0.1% (v/v)” group"},
      {"measurement": "inhibition of the 5α-reductase activity", "setting": "5α-reductase [2]; 100 μg/ml", "result": 26, "unit": "%"},
      {"measurement": "5α-DHT formed per culture well, mean", "setting": "5α-reductase [2]; 100 μg/ml", "result": "7.24* +/− pmol of 5α-DHT formed/culture well"},
      {"measurement": "5α-DHT formed per culture well, single well", "setting": "5α-reductase [2]; 100 μg/ml", "result": "7.52 pmol of 5α-DHT formed/culture well and 7.00 pmol of 5α-DHT formed/culture well and 7.20 pmol of 5α-DHT formed/culture well"},
      {"measurement": "group by 5α-reductase inhibitory activity", "setting": "5α-reductase [2]; tested at 1, 10 and 100 μg/ml", "result": "A"}
    ]}
  ]
}
